Values of other authors as cited in paper PMC7463651, “Phase I/Ib Study of Tenalisib (RP6530), a Dual PI3K δ/γ Inhibitor in Patients with Relapsed/Refractory T-Cell Lymphoma” (Cancers, 2020).
Read-outs that look alike come from different tables or passages of the source.

Tested on: PTCL/CTCL
Design: method as in PMID 21245435, PMID 28641053, PMID 26101246
Settings: cited from earlier work

Row | Compound | Overall response rate (ORR) (FDA approved single agent) [%] | Overall response rate (ORR) (in CD30+ T-cells) [%]
1 | C#CCC(Cc1cnc2nc(N)nc(N)c2n1)c1ccc(C(=O)N[C@@H](CCC(=O)O)C(=O)O)cc1 (stereo partly shown) [pralatrexate] | 29 | 
2 | brentuximab vedotin |  | 68
3 | O=C(/C=C/c1cccc(S(=O)(=O)Nc2ccccc2)c1)NO [belinostat] | 26 | 
4 | C/C=C1\NC(=O)[C@H]2CSSCC/C=C/[C@H](CC(=O)N[C@H](C(C)C)C(=O)N2)OC(=O)[C@H](C(C)C)NC1=O [romidepsin] | 25 | 
